22 molecules from US6723753B2, “Substituted n-benzyl-n-phenyl aminoalcohol compounds useful for inhibiting cholesteryl ester transfer protein activity” (Pharmacia Corporation, priority 2002, dated 2004) can be followed below.

Test [1] deals with T1, CETP (Homo sapiens, UniProt P11597).
T1 sequence (P11597 18-493): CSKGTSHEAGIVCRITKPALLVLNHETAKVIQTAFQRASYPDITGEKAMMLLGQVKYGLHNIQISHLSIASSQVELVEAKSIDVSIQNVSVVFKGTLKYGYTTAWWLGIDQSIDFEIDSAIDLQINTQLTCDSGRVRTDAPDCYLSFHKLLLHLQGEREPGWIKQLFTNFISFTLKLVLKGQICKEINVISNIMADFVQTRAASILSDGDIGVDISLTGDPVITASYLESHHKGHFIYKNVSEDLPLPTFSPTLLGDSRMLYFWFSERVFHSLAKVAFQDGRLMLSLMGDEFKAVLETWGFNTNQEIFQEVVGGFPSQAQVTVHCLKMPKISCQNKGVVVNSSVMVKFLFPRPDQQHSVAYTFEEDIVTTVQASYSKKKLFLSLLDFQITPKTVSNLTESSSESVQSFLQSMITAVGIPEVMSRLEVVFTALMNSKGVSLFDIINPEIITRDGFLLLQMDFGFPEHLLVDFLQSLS
Nature of the test: Assay of CETP Inhibition using Purified Components (Reconstituted Buffer Assay). In kind it is biochemical. On the set-up: made in house; host or cells: CHO cells (serum-free conditioned medium). The following applies: Inhibition of CETP activity in reconstituted buffer assay; transfer of [3H]CE from HDL to LDL; read-out: IC50. The method, boiled down:
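Transfer of radiolabeled cholesteryl ester from HDL to LDL was run for 2 h at 37 °C in pH 7.4 Tris buffer with 1% BSA, using purified CHO-expressed human CETP. Precipitated LDL radioactivity, measured by scintillation after dextran sulfate/MgCl2 precipitation and filtration, yielded the IC50.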

For test [2], the target named is T1, CETP. Nature of the test: Assay of CETP Inhibition in Human Plasma. The class given is biochemical. Further details: Blood was obtained from healthy volunteers, recruited from the personnel of Monsanto Company; from tissue; host or cells: human EDTA plasma pool from healthy volunteers. The following applies: Inhibition of CETP activity in human plasma assay; transfer of [3H]CE from HDL to VLDL and LDL; read-out: IC50. Here is the method: Assay of CETP Inhibition in Human Plasma
Blood was obtained from healthy volunteers, recruited from the personnel of Monsanto Company, Saint Louis, Mo. Blood was collected in tubes containing EDTA (EDTA plasma pool). The EDTA human plasma pool, previously stored at −20° C., was thawed at room temperature and centrifuged for 5 minutes to remove any particulate matter. […] Equal volumes (396 μL) of the plasma containing the [^3H]CE-HDL were added by pipette into micro tubes (Titertube®, Bio-Rad laboratories, Hercules, Calif.). Inhibitor compounds, dissolved as 20-50 mM stock solutions in DMSO, were serially diluted in DMSO (or an alternative solvent in some cases, such as dimethylformamide or ethanol). Four μL of each of the serial dilutions of inhibitor compounds or DMSO alone were then added to each of the tubes containing plasma (396 μL). After mixing, triplicate aliquots (100 μL) from each plasma tube were then transferred to wells of 96-well round-bottomed polystyrene microtiter plates (Corning, Corning, N.Y.). Plates were sealed with plastic film and incubated at 37° C. for 4 hours. “Test” samples contained plasma with dilutions of inhibitor compounds. “Control” samples contained plasma with DMSO diluted to the same concentration as the test samples, but without inhibitor. “Blank” samples were prepared as “control” samples, but were left in the micro tubes at 4° C. for the 4 hour incubation and were then added to the microtiter wells at the end of the incubation period. VDL and LDL were precipitated by the addition of 10 μL of precipitating reagent (1% (w/v) dextran sulfate (Dextralip50)/0.5 M magnesium chloride, pH 7.4) to all wells. The wells were mixed on a plate mixer and then incubated at ambient temperature for 10 min. The plates were then centrifuged at 1000× g for 30 min at 10° C. The supernatants (50 μL) from each well were then transferred to Picoplate™ 96 plate wells (Packard, Meriden, Conn.) containing Microscint™-40 (Packard, Meriden, Conn.). The plates were heat-sealed (TopSeal™-P, Packard, Meriden, Conn.) according to the manufacturer's directions and mixed for 30 min. Radioactivity was measured on a microplate scintillation counter (TopCount, Packard, Meriden, Conn.). The maximum percentage transfer in the control wells (% transfer) was determined using the following equation: [formula]
The percentage of transfer relative to the control (% control) was determined in the wells containing inhibitor compounds was determined as follows: [formula]
IC50 values were then calculated from plots of % control versus concentration of inhibitor compound.

pIC50: −log10 of the molar value.

The term pIC50 denotes the negative decadic logarithm of the IC50, by convention in mol/L. In the case of `OC(CN(Cc1cccc(OC(F)(F)F)c1)c1cccc(-c2ccccc2)c1)C(F)(F)F` (centres unmarked) [Example 66], the pIC50 in test [1] was 5.40; in test [2], 3.92.

In the case of `OC(CN(Cc1cccc(OC(F)(F)C(F)F)c1)c1cc(F)ccc1F)C(F)(F)F` (centres unmarked) [Example 70], the negative-log IC50 (pIC50) in test [1] was 5.70; in test [2], 4.19.

Turning to `OC(CN(Cc1cccc(OC(F)(F)C(F)F)c1)c1cccc(OC(F)(F)F)c1)C(F)(F)F` (centres unmarked) [Example 71], the pIC50 is 5.92 in test [1] and 4.44 in test [2].

Take `OC(CN(Cc1ccc(C(F)(F)F)cc1)c1ccc(F)c(C(F)(F)F)c1)C(F)(F)F` (centres unmarked) [Example 75]: the negative logarithm of the IC50 (pIC50) in test [1] is 5.15; in test [2], 3.70.

On to `OC(CN(Cc1cccc(OC(F)(F)F)c1)c1ccc2ccccc2c1)C(F)(F)F` (centres unmarked) [Example 76], for which the figures for the pIC50 in test [1] and in test [2] were 5.22 and under 3.70, respectively.

Turning to `OC(CN(Cc1cccc(OC(F)(F)F)c1)c1ccc(-c2ccccc2)cc1)C(F)(F)F` (centres unmarked) [Example 79], the pIC50 in test [1] was 5.82; in test [2] it was 4.22.

As to `OC(CN(Cc1cccc(OC(F)(F)C(F)F)c1)c1ccc(-c2ccccc2)cc1)C(F)(F)F` (centres unmarked) [Example 87], the pIC50 in test [1] was 5.40; in test [2] it was 4.22.

For `OC(CN(Cc1cccc(OC(F)(F)F)c1)c1ccc2c(c1)OC(F)(F)C(F)(F)O2)C(F)(F)F` (centres unmarked) [Example 89], the negative logarithm of the IC50 (pIC50) in test [1] was 5.64; in test [2], 4.22.

As to `OC(CCl)COc1cccc(CN(CC(O)C(F)(F)F)c2cccc(OC(F)(F)F)c2)c1` (centres unmarked) [Example 104], the negative-log IC50 (pIC50) in test [1] was 5.52; in test [2], under 4.00.

As to `OC(CN(Cc1cccc(Oc2cccc(C(F)(F)F)c2)c1)c1cccc(Oc2ccccc2)c1)C(F)(F)F` (centres unmarked) [Example 115], the values for the negative-log IC50 (pIC50) in test [1] and in test [2] were 5.52 and under 4.00, respectively.

Consider `OC(CN(Cc1cccc(OC(F)(F)F)c1)c1cccc(OCc2ccccc2)c1)C(F)(F)F` (centres unmarked) [Example 126], for which the results for the negative logarithm of the IC50 (pIC50) in test [1] and in test [2] were 5.40 and 4.35, respectively.

As to `OC(CN(Cc1cccc(Oc2ccccc2)c1)c1cccc(OCc2ccccc2)c1)C(F)(F)F` (centres unmarked) [Example 127], the pIC50 in test [1] was 5.15; in test [2], under 4.00.

On to `CCOc1cccc(N(Cc2cccc(OC(F)(F)F)c2)CC(O)C(F)(F)F)c1` (centres unmarked) [Example 128], for which the negative logarithm of the IC50 (pIC50) is 5.62 in test [1] and 4.46 in test [2].

In the case of `OC(CN(Cc1cccc(OC(F)(F)F)c1)c1ccc2c(c1)OCCO2)C(F)(F)F` (centres unmarked) [Example 131], the figures for the pIC50 in test [1] and in test [2] were 5.00 and under 4.00, respectively.

Take `OC(CN(Cc1ccc(C(F)(F)F)cc1)c1cccc(OC(F)(F)F)c1)C(F)(F)F` (centres unmarked) [Example 140]: the pIC50 in test [1] is 5.80; in test [2], 4.10.

Take `OC(CN(Cc1ccc(C(F)(F)F)cc1)c1ccc(-c2ccccc2)cc1)C(F)(F)F` (centres unmarked) [Example 141]: the negative logarithm of the IC50 (pIC50) in test [1] is 5.30; in test [2], under 4.00.

Turning to `OC(CN(Cc1cccc(C(F)(F)F)c1)c1cccc(Oc2ccccc2)c1)C(F)(F)F` (centres unmarked) [Example 149], the negative-log IC50 (pIC50) was 5.80 in test [1] and under 4.00 in test [2].

As to `OC(CN(Cc1ccc(C(F)(F)F)cc1)c1cccc(Oc2ccccc2)c1)C(F)(F)F` (centres unmarked) [Example 150], the values for the negative logarithm of the IC50 (pIC50) in test [1] and in test [2] were 5.77 and 4.10, respectively.

For `OC(CN(Cc1cccc(OC(F)(F)F)c1)c1cccc(Oc2ccc(F)cc2)c1)C(F)(F)F` (centres unmarked) [Example 166], the pIC50 in test [1] is 6.11; in test [2], 4.52.

For `COc1ccc(Oc2ccc(CN(CC(O)C(F)(F)F)c3cccc(Oc4ccccc4)c3)cc2)cc1` (centres unmarked) [Example 168], the figures for the negative-log IC50 (pIC50) in test [1] and in test [2] were 5.60 and under 4.00, respectively.

Take `OC(CN(Cc1cccc(OC(F)(F)F)c1)c1ccc2c(c1)Cc1ccccc1-2)C(F)(F)F` (centres unmarked) [Example 201]: the pIC50 is 5.40 in test [1] and 3.96 in test [2].

`OC(CN(Cc1cccc(OC(F)(F)F)c1)c1ccc2c(c1)Cc1cc(Br)ccc1-2)C(F)(F)F` (centres unmarked) [Example 204]: the pIC50 is 5.46 in test [1] and under 4.00 in test [2].
